This is an account of results in ChEMBL document CHEMBL1781997, “Anticonvulsant 4-aminobenzenesulfonamide derivatives with branched-alkylamide moieties: X-ray crystallography and inhibition studies of human carbonic anhydrase isoforms I, II, VII, and XIV” (J Med Chem, 2011).

In experiment [1] the test system is Rattus norvegicus. Description: Anticonvulsant activity against maximal electroshock-induced seizures in po dosed rat. It counts as functional.
Experiment [2] concerns the target Carbonic anhydrase 2 (Homo sapiens, UniProt P00918).
Description: Inhibition of human carbonic anhydrase 2 preincubated with compound for 15 mins by carbon dioxide hydration assay
For experiment [3], the target named is Carbonic anhydrase 14 (Homo sapiens, UniProt Q9ULX7).
Sequence of Carbonic anhydrase 14 (Q9ULX7 whole entry): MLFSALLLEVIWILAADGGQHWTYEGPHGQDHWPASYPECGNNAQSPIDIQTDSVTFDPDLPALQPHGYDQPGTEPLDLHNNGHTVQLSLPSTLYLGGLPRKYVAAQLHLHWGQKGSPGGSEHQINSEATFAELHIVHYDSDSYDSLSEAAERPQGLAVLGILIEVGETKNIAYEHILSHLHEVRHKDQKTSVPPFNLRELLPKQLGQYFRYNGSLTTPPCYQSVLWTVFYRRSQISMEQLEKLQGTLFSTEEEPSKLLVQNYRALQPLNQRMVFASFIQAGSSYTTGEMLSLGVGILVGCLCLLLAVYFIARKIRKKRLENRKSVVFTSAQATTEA
Description: Inhibition of human carbonic anhydrase 14 preincubated with compound for 15 mins by carbon dioxide hydration assay
Experiment [4] concerns the target Carbonic anhydrase 1 (Homo sapiens, UniProt P00915).
Description: Inhibition of human carbonic anhydrase 1 preincubated with compound for 15 mins by carbon dioxide hydration assay
Experiment [5] has as its target Carbonic anhydrase 7 (Homo sapiens, UniProt P43166).
Description: Inhibition of human carbonic anhydrase 7 preincubated with compound for 15 mins by carbon dioxide hydration assay

Sequence of Carbonic anhydrase 7 (P43166 whole entry): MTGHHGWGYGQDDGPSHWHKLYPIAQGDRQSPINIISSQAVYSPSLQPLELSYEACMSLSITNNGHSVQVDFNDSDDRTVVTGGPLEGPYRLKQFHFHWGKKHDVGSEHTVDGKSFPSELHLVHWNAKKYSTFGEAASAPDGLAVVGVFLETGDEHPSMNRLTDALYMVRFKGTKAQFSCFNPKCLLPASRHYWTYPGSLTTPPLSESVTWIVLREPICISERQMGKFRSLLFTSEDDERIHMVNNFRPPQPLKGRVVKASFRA
Sequence of Carbonic anhydrase 1 (P00915 whole entry): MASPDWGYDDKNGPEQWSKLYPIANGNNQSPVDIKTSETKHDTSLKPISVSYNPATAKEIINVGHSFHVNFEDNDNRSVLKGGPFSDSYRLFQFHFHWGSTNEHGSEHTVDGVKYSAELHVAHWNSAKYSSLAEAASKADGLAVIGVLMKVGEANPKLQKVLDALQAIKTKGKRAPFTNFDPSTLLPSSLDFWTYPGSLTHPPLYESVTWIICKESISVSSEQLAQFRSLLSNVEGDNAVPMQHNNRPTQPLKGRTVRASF

Turning to `CCCC(C)C(=O)Nc1ccc(S(N)(=O)=O)cc1` (configuration not stated), the ED50 in experiment [1] stood at 40 µmol/kg. The Ki in experiment [2] worked out at 0.22 µM; in experiment [3], 0.644 µM; in experiment [4], 1.71 µM; in experiment [5], 0.605 µM.
Regarding `CCC(CC)C(=O)Nc1ccc(S(N)(=O)=O)cc1`, the ED50 in experiment [1] is 37 µmol/kg.
The compound `CCC(CC(C)C)C(=O)Nc1ccc(S(N)(=O)=O)cc1` (configuration not stated) displayed an ED50 in experiment [1] of 56 µmol/kg.
Same read-out and setting: to `NS(=O)(=O)Cc1noc2ccccc12` [ZONISAMIDE] belongs 100 µmol/kg.
Take `CC(C)(C)C(=O)Nc1ccc(S(N)(=O)=O)cc1`: in experiment [1], it took a dose of 165 µmol/kg to reach the 50% effect level (ED50).
`CC1(C)O[C@@H]2[C@@H](CO[C@@]3(COS(N)(=O)=O)OC(C)(C)O[C@@H]23)O1` [TOPIRAMATE] returned an ED50 in experiment [1] of 10 µmol/kg.
Same read-out and setting: the value for `CC(C)(C)CC(=O)Nc1ccc(S(N)(=O)=O)cc1` was 35 µmol/kg.
With `NS(=O)(=O)c1ccc(NC(=O)Cc2ccccc2)cc1`, the ED50 in experiment [1] turned out to be 55 µmol/kg. Further, the Ki amounted to 0.046 µM in experiment [3], 0.0076 µM in experiment [4] and 0.052 µM in experiment [5].
`CCCCC(CC)C(=O)Nc1ccc(S(N)(=O)=O)cc1` (configuration not stated): the ED50 in experiment [1] amounted to 80 µmol/kg.
On the same count and under the same terms, the value for `CCCC(C(=O)Nc1ccc(S(N)(=O)=O)cc1)C(C)CC` (configuration not stated) was 115 µmol/kg.
The same measure, in the same setting: the value for `CC(C)C(C(=O)Nc1ccc(S(N)(=O)=O)cc1)C(C)(C)C` (configuration not stated) was 58 µmol/kg.
Take `CCC(CC)C(=O)NCCc1ccc(S(N)(=O)=O)cc1`: the Ki in experiment [2] stood at 0.0338 µM; in experiment [3], 0.684 µM; in experiment [4], 0.407 µM; in experiment [5] it was 0.051 µM.
In the case of `CCCC(C(=O)Nc1ccc(S(N)(=O)=O)cc1)C(C)C` (configuration not stated), it took a dose of 139 µmol/kg to reach the 50% effect level in experiment [1] (ED50).
The same measure, in the same setting: the value for `CCC(C)CC(=O)Nc1ccc(S(N)(=O)=O)cc1` (configuration not stated) was 61 µmol/kg.
`CCCC(CC)C(=O)Nc1ccc(S(N)(=O)=O)cc1` (configuration not stated) registered an ED50 in experiment [1] of 41 µmol/kg.
Turning to `CCC(CC)C(=O)NCc1ccc(S(N)(=O)=O)cc1`, the ED50 in experiment [1] is 87 µmol/kg.
On the same count and under the same terms, to `CCC(C)C(=O)Nc1ccc(S(N)(=O)=O)cc1` (configuration not stated) belongs 30 µmol/kg.
